{"source": "patent US20250099433A1", "about": "“COMPOSITION AND METHOD FOR TREATMENT OF GRAM NEGATIVE BACTERIAL INFECTION” (The Research Foundation for the State University of New York, priority 2021, published 2025)", "key": {"paLpxC [1]": {"target": "T1, paLpxC (Pseudomonas aeruginosa (strain ATCC 15692 / DSM 22644 / CIP 104116 / JCM 14847 / LMG 12228 / 1C / PRS 101 / PAO1), UniProt P47205)", "T1 sequence (P47205 1-299)": "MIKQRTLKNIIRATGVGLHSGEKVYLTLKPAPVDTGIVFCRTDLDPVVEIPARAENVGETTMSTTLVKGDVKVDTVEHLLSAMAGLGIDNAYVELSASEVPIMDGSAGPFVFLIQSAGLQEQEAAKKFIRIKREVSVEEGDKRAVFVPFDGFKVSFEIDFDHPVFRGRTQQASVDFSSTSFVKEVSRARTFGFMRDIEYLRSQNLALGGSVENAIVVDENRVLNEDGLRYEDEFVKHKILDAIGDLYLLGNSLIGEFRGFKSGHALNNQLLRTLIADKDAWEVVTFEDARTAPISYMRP", "test": "biochemical", "format": "binding", "settings": "for Ki: fluorescence competition; for tR (min) Fluorescence assay: tR = 1/koff; for koff: read-out: Koff (s^−1); for kon: read-out: Kon (μM^−1s^−1)"}, "P. aeruginosa PAO1 [2]": {"tested_on": "P. aeruginosa PAO1", "test": "MIC by microbroth dilution, P. aeruginosa PAO1", "settings": "Pseudomonas aeruginosa, PAO1, read-out: MIC (μM) (PAO1)"}, "P. aeruginosa PAO1 [3]": {"tested_on": "P. aeruginosa PAO1", "test": "Post-antibiotic effect (PAE) in P. aeruginosa PAO1", "settings": "37° C.; for PAE (h) 4x: PAO1, 4xMIC for 1 h; for PAE (h) 8x: PAO1, 8xMIC for 1 h; for PAE (h) 16x: PAO1, 16xMIC for 1 h", "procedure": "Post-antibiotic effect of the paLpxC inhibitors on wild-type P. aeruginosa. […] The experimental data points are the mean values from triplicate, independent measurements, and the error bars represent the standard deviation from the mean.\nAfter incubating the plates overnight at 37° C., CFUs were enumerated, and the PAE values were calculated using a standard method where the time for the bacteria to recover 1 log post drug washout compared to the control was determined (FIG. 17, Table 6).\nPost-antibiotic Effect (PAE). PAEs were determined using P. aeruginosa PAO1. […] The compound was washed out by diluting the culture 1000-fold into fresh CAMH-II medium, and the regrowth of bacteria was monitored by taking 100 μL aliquots each hour and plating serial dilutions on Muller-Hinton agar plates."}, "[4]": {"tested_on": "efflux-pump mutant strain (ΔMexABCDXY) (paEP)", "test": "MIC by microbroth dilution, efflux-pump mutant P. aeruginosa", "settings": "Pseudomonas aeruginosa, read-out: MIC (μM) (paEP)", "source_text": "Bacterial Strains. […] The efflux-pump deficient P. aeruginosa strain (ΔMexABCDXY), N150, was derived from PAO1.\nMinimum Inhibitory Concentration (MIC) Measurements."}, "paLpxC [5]": {"target": "T1, paLpxC", "test": "Spin column (Penefsky) residence time assay on paLpxC", "format": "binding", "settings": "37° C.; for tR (min) (Spin column assay): direct displacement; for k (min^−1), spin-column assay: first-order fit", "experimental": "FIG. 14. Spin-column assay. A spin-column assay was used to quantify the residence time of inhibitors on paLpxC at 37° C. […] Samples were then subjected to size exclusion chromatography at different times using a Spin-Trap G-25 column (800×g for 2 min). […] Preincubated solutions of enzyme (10 μM) and inhibitor (10 or 20 μM) were diluted 200-fold into a solution of PT855 (1 μM) at 37° C. Aliquots of this solution were withdrawn at various times and subjected to centrifugal gel filtration chromatography using PD SpinTrap™ G-25 columns. The fluorescence of the eluate was quantified, and the data were fit to a single exponential equation to obtain koff (FIG. 14, Tables 4 and 5).\nInhibitor Residence Time Measurements using a Spin Column Assay. […] Subsequently, 10 μL of the incubation mixture was diluted into 2 mL of the same buffer containing 1 μM of PT855, and 100 μL of this mixture was then aliquoted at different time points and loaded onto a PD SpinTrap™ G-25 column (Cytiva) that had been equilibrated with buffer prior to sample loading. […] The fluorescence intensities corresponding to loading diluted EI without the fluorescent competitor and loading the competitor alone were measured separately to determine the dynamic range and endpoint of the assay. […] Rates were calculated by fitting the change in fluorescence intensity over time to a one-phase association equation in GraphPad Prism."}, "P. aeruginosa PAO1 [6]": {"tested_on": "P. aeruginosa PAO1", "test": "Time-kill assays in P. aeruginosa PAO1", "settings": "PAO1, 4x, 8x and 16xMIC, CAMH media, 37° C.", "procedure": "Time-kill assays. […] The experimental data points are the mean values from triplicate, independent measurements, and the error bars represent the standard deviation from the mean.\nTime-Kill Assays. […] Cultures were shaken at 37° C. for 6 h, and 100 μL aliquots were taken at each 1 h time interval and plated in serial dilutions in a Mueller-Hinton agar plate."}}, "note": "Values joined by “and” are separate entries in the source; they are usually repeats but may differ in a detail not shown here. Equal values may be shown once."}
{"smiles": "CC(CCn1ccc(-c2ccc(-c3cn(CC45CC(C4)C5)nn3)cc2)cc1=O)(C(=O)NO)S(C)(=O)=O", "note": "(racemic) [PT913, 4-(4-(4-(1-(bicyclo[1.1.1]pentan-1-ylmethyl)-1H-1,2,3-triazol-4-yl)phenyl)-2-oxopyridin-1(2H)-yl)-N-hydroxy-2-methyl-2-(methylsulfonyl)butanamide]", "values": [{"measurement": "Ki", "setting": "paLpxC [1]; 37° C.", "result": "2.1 ± 1.6", "unit": "pM"}, {"measurement": "tR (min) Fluorescence assay", "setting": "paLpxC [1]; 37° C.", "result": "123.8 ± 37.2 min and 124.0 ± 37.2 min"}, {"measurement": "residence time fold longer than 1", "setting": "paLpxC [1]; fluorescence assay, 37° C.", "result": "~3", "unit": "fold"}, {"measurement": "koff", "setting": "paLpxC [1]", "result": "0.00015 ± 5e-05", "unit": "s⁻¹"}, {"measurement": "kon", "setting": "paLpxC [1]", "result": "85.2 ± 32.5", "unit": "µM⁻¹ s⁻¹"}, {"measurement": "MIC", "setting": "P. aeruginosa PAO1 [2]", "result": 12.5, "unit": "µM"}, {"measurement": "PAE (h) 4x", "setting": "P. aeruginosa PAO1 [3]", "result": "4 h and 4.0 ± 0.2 h"}, {"measurement": "MIC", "setting": "[4]", "result": 0.78, "unit": "µM"}]}
{"smiles": "CC(CCn1ccc(-c2ccc(-c3cn(CC4CC4)nn3)cc2)cc1=O)(C(=O)NO)S(C)(=O)=O", "note": "(racemic) [PT908, 4-(4-(4-(1-(cyclopropylmethyl)-1H-1,2,3-triazol-4-yl)phenyl)-2-oxopyridin-1(2H)-yl)-N-hydroxy-2-methyl-2-(methylsulfonyl)butanamide]", "values": [{"measurement": "Ki", "setting": "paLpxC [1]; 37° C.", "result": "10.2 ± 4.3", "unit": "pM"}, {"measurement": "tR (min) Fluorescence assay", "setting": "paLpxC [1]; 37° C.", "result": "66.9 ± 8.6 min and 67.0 ± 8.6 min"}, {"measurement": "koff", "setting": "paLpxC [1]", "result": "0.00025 ± 3e-05", "unit": "s⁻¹"}, {"measurement": "kon", "setting": "paLpxC [1]", "result": "26.4 ± 6.3", "unit": "µM⁻¹ s⁻¹"}, {"measurement": "tR (min) (Spin column assay)", "setting": "paLpxC [5]", "result": "190.6 ± 92.0", "unit": "min"}, {"measurement": "reduction of the starting log CFU/mL of the bacterial culture", "setting": "P. aeruginosa PAO1 [6]", "result": "more than 3 logs"}, {"measurement": "MIC", "setting": "P. aeruginosa PAO1 [2]", "result": 3.12, "unit": "µM"}, {"measurement": "PAE (h) 4x", "setting": "P. aeruginosa PAO1 [3]", "result": "1.6 ± 0.1", "unit": "h"}, {"measurement": "PAE (h) 8x", "setting": "P. aeruginosa PAO1 [3]", "result": "2.2 ± 0.1", "unit": "h"}, {"measurement": "PAE (h) 16x", "setting": "P. aeruginosa PAO1 [3]", "result": "3.1 ± 0.1", "unit": "h"}, {"measurement": "MIC", "setting": "[4]", "result": 0.4, "unit": "µM"}]}
{"smiles": "C=CCn1cc(-c2ccc(-c3ccn(CCC(C)(C(=O)NO)S(C)(=O)=O)c(=O)c3)cc2)nn1", "note": "(racemic) [PT907, 4-(4-(4-(1-allyl-1H-1,2,3-triazol-4-yl)phenyl)-2-oxopyridin-1(2H)-yl)-N-hydroxy-2-methyl-2-(methylsulfonyl)butanamide]", "values": [{"measurement": "Ki", "setting": "paLpxC [1]; 37° C.", "result": "6.1 ± 5.7", "unit": "pM"}, {"measurement": "tR (min) Fluorescence assay", "setting": "paLpxC [1]; 37° C.", "result": "82.8 ± 26.0", "unit": "min"}, {"measurement": "koff", "setting": "paLpxC [1]", "result": "0.00022 ± 7e-05", "unit": "s⁻¹"}, {"measurement": "kon", "setting": "paLpxC [1]", "result": "52 ± 29.5", "unit": "µM⁻¹ s⁻¹"}, {"measurement": "tR (min) (Spin column assay)", "setting": "paLpxC [5]", "result": "146.5 ± 44.0", "unit": "min"}, {"measurement": "k (min^−1), spin-column assay", "setting": "paLpxC [5]", "result": "0.007 ± 0.002", "unit": "min⁻¹"}, {"measurement": "MIC", "setting": "P. aeruginosa PAO1 [2]", "result": 12.5, "unit": "µM"}, {"measurement": "MIC", "setting": "[4]", "result": 0.78, "unit": "µM"}]}
{"smiles": "COc1ccc(-c2ccc(CNC3(C(=O)NO)CCS(=O)(=O)CC3)cc2)c(F)c1", "note": "[PT920, 4-(((2′-fluoro-4′-methoxy-[1,1′-biphenyl]-4-yl)methyl)amino)-N-hydroxytetrahydro-2H-thiopyran-4-carboxamide 1,1-dioxide]", "values": [{"measurement": "Ki", "setting": "paLpxC [1]; 37° C.", "result": "37.9 ± 24", "unit": "pM"}, {"measurement": "tR (min) Fluorescence assay", "setting": "paLpxC [1]; 37° C.", "result": "32.0 ± 4.8", "unit": "min"}, {"measurement": "koff", "setting": "paLpxC [1]", "result": "0.00053 ± 7e-05", "unit": "s⁻¹"}, {"measurement": "kon", "setting": "paLpxC [1]", "result": "16.6 ± 8.5", "unit": "µM⁻¹ s⁻¹"}, {"measurement": "tR (min) (Spin column assay)", "setting": "paLpxC [5]", "result": "79 ± 24 min and 79.0 ± 24.0 min"}, {"measurement": "k (min^−1), spin-column assay", "setting": "paLpxC [5]", "result": "0.013 ± 0.004", "unit": "min⁻¹"}, {"measurement": "reduction of the starting log CFU/mL of the bacterial culture", "setting": "P. aeruginosa PAO1 [6]", "result": "more than 3 logs"}, {"measurement": "MIC", "setting": "P. aeruginosa PAO1 [2]", "result": 0.4, "unit": "µM"}, {"measurement": "PAE (h) 4x", "setting": "P. aeruginosa PAO1 [3]", "result": "1.0 ± 0.1", "unit": "h"}, {"measurement": "PAE (h) 8x", "setting": "P. aeruginosa PAO1 [3]", "result": "1.3 ± 0.2", "unit": "h"}, {"measurement": "PAE (h) 16x", "setting": "P. aeruginosa PAO1 [3]", "result": "1.7 ± 0.2", "unit": "h"}, {"measurement": "MIC", "setting": "[4]", "result": 0.03, "unit": "µM"}]}
{"smiles": "CC(CCn1ccc(-c2ccc(-c3cn(Cc4ccc(F)cc4)nn3)cc2)cc1=O)(C(=O)NO)S(C)(=O)=O", "note": "(racemic) [PT909, 4-(4-(4-(1-(4-fluorobenzyl)-1H-1,2,3-triazol-4-yl)phenyl)-2-oxopyridin-1(2H)-yl)-N-hydroxy-2-methyl-2-(methylsulfonyl)butanamide]", "values": [{"measurement": "Ki", "setting": "paLpxC [1]; 37° C.", "result": "8 ± 2.3", "unit": "pM"}, {"measurement": "tR (min) Fluorescence assay", "setting": "paLpxC [1]; 37° C.", "result": "68.2 ± 9.6", "unit": "min"}, {"measurement": "koff", "setting": "paLpxC [1]", "result": "0.00025 ± 3e-05", "unit": "s⁻¹"}, {"measurement": "kon", "setting": "paLpxC [1]", "result": "33.8 ± 13.6", "unit": "µM⁻¹ s⁻¹"}, {"measurement": "tR (min) (Spin column assay)", "setting": "paLpxC [5]", "result": "106 ± 25 min and 106.2 ± 25.0 min"}, {"measurement": "k (min^−1), spin-column assay", "setting": "paLpxC [5]", "result": "0.009 ± 0.002", "unit": "min⁻¹"}, {"measurement": "reduction of the starting log CFU/mL of the bacterial culture", "setting": "P. aeruginosa PAO1 [6]", "result": "more than 3 logs"}, {"measurement": "MIC", "setting": "P. aeruginosa PAO1 [2]", "result": 1.56, "unit": "µM"}, {"measurement": "PAE (h) 4x", "setting": "P. aeruginosa PAO1 [3]", "result": "1.7 ± 0.1", "unit": "h"}, {"measurement": "PAE (h) 8x", "setting": "P. aeruginosa PAO1 [3]", "result": "2.5 ± 0.1", "unit": "h"}, {"measurement": "PAE (h) 16x", "setting": "P. aeruginosa PAO1 [3]", "result": "3.5 ± 0.2", "unit": "h"}, {"measurement": "MIC", "setting": "[4]", "result": 0.05, "unit": "µM"}]}
